Test results from patent US20150111737A1, “SYNERGISTIC PESTICIDAL COMPOSITIONS AND RELATED METHODS” (Dow AgroSciences LLC, priority 2013, published 2015).

Test system: diamondback moth, Plutella xylostella
Test: Cabbage leaf bioassay (track sprayer) against second instar diamondback moth; synergy judged by Colby's equation
Format: in vivo
Details: single active, dose rate 0.0025 weight %, 400 L/Ha spray
From the text: The method described in Colby S. R., “Calculating Synergistic and Antagonistic Responses of Herbicide Combinations,” Weeds, 1967, 15, 20-22 was used to determine an existence of synergic effect between the juvenile hormone mimicking compound and the pesticide (I), (II), or any agriculturally acceptable salt thereof in the formulated pesticidal composition. In this method, the percent insect control of the formulated pesticidal composition as observed in the study was compared to the “expected” percent control (E) as calculated by equation (1) (hereinafter “Colby's equation”) below: […]
Bioassays were performed for different active compounds. Cabbage plants with about two to three new-growth-true leaf stage were treated with different active compounds using a track sprayer application at 400 L/Ha spray volume. Three second instar diamondback moths, Plutella xylostella, were infested onto each leaf disc. The percent control of the pesticidal composition against diamondback moth, Plutella xylostella, was determined as the “Observed” action, and compared to those obtained by using about 0.0025 weight % of Compound II, and using about 0.000391 weight % of pyriproxyfen alone. The “Colby's Expected Action” was calculated using Colby's equation as discussed previously. […]
The percent control may be determined some time after treatment.

Row | SMILES | % Control Three Days After Treatment [%]
1 | CCN(C(=O)CCSCCC(F)(F)F)c1cn(-c2cccnc2)nc1Cl [Compound I, N-(3-chloro-1-(pyridin-3-yl)-1H-pyrazol-4-yl)-N-ethyl-3-((3,3,3-trifluoropropyl)thio)propanamide] | 0
2 | CCN(C(=O)CC[S+]([O-])CCC(F)(F)F)c1cn(-c2cccnc2)nc1Cl (centres unmarked) [Compound II, N-(3-chloro-1-(pyridin-3-yl)-1H-pyrazol-4-yl)-N-ethyl-3-((3,3,3-trifluoropropyl)sulfinyl)propanamide] | 0
